Experimental data taken from PMC4675670 (Science translational medicine, 2015).

Key:
[1] = molecular target: cytoplasmic prolyl-tRNA synthetase (PfcPRS, PF3D7_1213800) (Plasmodium falciparum, UniProt Q8I5R7, L482H); assay: biochemical assay on purified recombinant mutant enzyme
[2] = molecular target: cytoplasmic prolyl-tRNA synthetase (PfcPRS, PF3D7_1213800) (Plasmodium falciparum, UniProt Q8I5R7); assay: biochemical assay on purified recombinant enzyme
[3] = molecular target: human EPRS (bifunctional glutamyl-prolyl-tRNA synthetase) (Homo sapiens, UniProt P07814); assay: biochemical assay
human EPRS (bifunctional glutamyl-prolyl-tRNA synthetase), sequence (P07814 whole entry): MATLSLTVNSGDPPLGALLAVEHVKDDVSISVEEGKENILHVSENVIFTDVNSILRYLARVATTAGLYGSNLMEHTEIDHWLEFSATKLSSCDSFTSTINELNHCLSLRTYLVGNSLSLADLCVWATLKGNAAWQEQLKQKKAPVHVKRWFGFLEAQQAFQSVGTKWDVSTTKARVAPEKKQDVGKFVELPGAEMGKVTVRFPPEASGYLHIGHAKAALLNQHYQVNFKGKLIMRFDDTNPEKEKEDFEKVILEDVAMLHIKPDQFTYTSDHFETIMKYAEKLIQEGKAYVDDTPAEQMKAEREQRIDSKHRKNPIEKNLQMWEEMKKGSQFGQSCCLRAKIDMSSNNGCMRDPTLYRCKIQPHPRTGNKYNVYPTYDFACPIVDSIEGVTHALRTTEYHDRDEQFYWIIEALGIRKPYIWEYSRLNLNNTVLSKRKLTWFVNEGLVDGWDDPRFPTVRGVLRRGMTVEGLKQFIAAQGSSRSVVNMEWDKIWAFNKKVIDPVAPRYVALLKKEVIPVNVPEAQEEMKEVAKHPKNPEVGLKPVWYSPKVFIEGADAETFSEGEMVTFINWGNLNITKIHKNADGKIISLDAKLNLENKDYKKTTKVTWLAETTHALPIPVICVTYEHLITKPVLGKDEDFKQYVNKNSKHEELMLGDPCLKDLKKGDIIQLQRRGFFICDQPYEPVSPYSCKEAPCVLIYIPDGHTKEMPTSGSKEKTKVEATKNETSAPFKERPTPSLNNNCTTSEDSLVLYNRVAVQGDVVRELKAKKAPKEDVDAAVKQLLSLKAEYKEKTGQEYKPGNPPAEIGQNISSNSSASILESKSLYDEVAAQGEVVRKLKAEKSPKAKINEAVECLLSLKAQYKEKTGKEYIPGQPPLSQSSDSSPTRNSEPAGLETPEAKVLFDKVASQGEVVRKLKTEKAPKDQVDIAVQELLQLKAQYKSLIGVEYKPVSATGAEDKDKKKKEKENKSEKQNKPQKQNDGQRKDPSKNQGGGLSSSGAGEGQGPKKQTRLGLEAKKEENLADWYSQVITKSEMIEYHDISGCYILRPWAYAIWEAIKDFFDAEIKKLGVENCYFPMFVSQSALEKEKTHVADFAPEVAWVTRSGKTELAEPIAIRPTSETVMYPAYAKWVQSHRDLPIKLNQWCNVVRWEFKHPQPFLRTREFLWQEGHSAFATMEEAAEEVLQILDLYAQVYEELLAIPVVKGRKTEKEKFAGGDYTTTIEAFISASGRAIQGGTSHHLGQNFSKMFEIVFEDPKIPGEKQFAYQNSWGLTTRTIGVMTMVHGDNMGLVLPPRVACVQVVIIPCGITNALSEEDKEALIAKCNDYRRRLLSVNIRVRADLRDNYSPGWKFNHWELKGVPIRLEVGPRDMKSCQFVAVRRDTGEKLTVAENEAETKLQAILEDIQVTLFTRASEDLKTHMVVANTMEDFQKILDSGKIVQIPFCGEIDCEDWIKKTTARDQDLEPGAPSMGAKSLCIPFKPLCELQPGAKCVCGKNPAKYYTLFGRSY

O=c1c2cc(Cl)c(Br)cc2ncn1C[C@@H](O)C[C@H]1NCCC[C@@H]1O [halofuginol] gave a Ki [1] of 1120 nM, a Ki [2] of 71.1 nM and a Ki [3] of 65.7 nM.
